Measurements: paper PMC7384767 (Journal of natural products, 2020)

Tested on: M. tuberculosis H37Rv
Test: Microplate Alamar Blue assay
Assay type: cell-based
Conditions: result in words

Which anti-TB activity does the source give for `C=CC(C)(C)n1cc(C[C@@H]2NC(=O)[C@H](CC(C)C)N(C)C2=O)c2ccccc21` [Compound 9, rufomyazine] here?
Its anti-TB activity is “did not show anti-TB activity”.
